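In this assay, cells in 96-well plates receive the compound at five concentrations for 48 hours. Endpoints are linearly interpolated between the surrounding concentrations. GI50 = concentration required for 50% inhibition of growth.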 Active and inactive are the calls of the source. Rule as the data show it: active = GI50 up to about 1.1 µM and inactive = higher.
Key:
Assay in all cases: growth of human tumour cells (NCI), 48 h
[1] = system: DLD-1
[2] = system: TK-10
[3] = system: UACC-257
[4] = system: RPMI-8226
[5] = system: CAKI-1
[6] = system: HCC 2998
[7] = system: UO-31
[8] = system: M14
[9] = system: KM12
[10] = system: SF-295
[11] = system: SR
[12] = system: HL-60
[13] = system: EKVX
[14] = system: A549
[15] = system: HT-29
[16] = system: Malme-3M
[17] = system: SK-OV-3
[18] = system: KM-20L2
[19] = system: RXF 631
[20] = system: OVCAR-8
[21] = system: RXF 393
[22] = system: SK-MEL-2
[23] = system: SN12C
[24] = system: SNB-75
[25] = system: NCI-H23
[26] = system: HOP-92
[27] = system: ACHN
[28] = system: DMS-273
[29] = system: SK-MEL-5
[30] = system: UACC-62
[31] = system: K562
[32] = system: OVCAR-3
[33] = system: HCT-116
[34] = system: NCI-H460
[35] = system: NCI-H522
[36] = system: SW-620
[37] = system: MOLT-4
[38] = system: A498
[39] = system: HOP-62
[40] = system: SF-268
[41] = system: OVCAR-5
[42] = system: SF-539
[43] = system: LXFL 529
[44] = system: XF498
[45] = system: SK-MEL-28
[46] = system: SNB-19
[47] = system: HCT-15
[48] = system: CCRF-CEM
[49] = system: LOX IMVI
[50] = system: U-251
[51] = system: COLO 205
[52] = system: 786-0
[53] = system: SNB-78
[54] = system: OVCAR-4
[55] = system: M19-MEL
[56] = system: IGROV-1
[57] = system: DMS-114
[58] = system: NCI-H226
[59] = system: HOP-18

With CCC1CN2CCc3cc(OC)c(OC)cc3C2CC1CC1c2cc(OC)c(OC)cc2CCN1C(=O)C(N)Cc1ccccc1.[O-][Cl+3]([O-])([O-])O (stereo not drawn) the GI50 [1] was 3.38 µM (inactive), the GI50 [2] was 2.75 µM (inactive) and the GI50 [3] was 2.35 µM (inactive). For the same compound, the GI50 [4] was 1.94 µM (inactive), the GI50 [5] was 1.95 µM (inactive) and the GI50 [6] was 0.564 µM (active). For the same compound, the GI50 [7] was 2.13 µM (inactive), the GI50 [8] was 0.628 µM (active) and the GI50 [9] was 1.77 µM (inactive). For the same compound, the GI50 [10] was 2.05 µM (inactive), the GI50 [11] was 0.423 µM (active) and the GI50 [12] was 1.59 µM (inactive). For the same compound, the GI50 [13] was 1.26 µM (inactive), the GI50 [14] was 1.6 µM (inactive) and the GI50 [15] was 0.486 µM (active). For the same compound, the GI50 [16] was 2.77 µM (inactive), the GI50 [17] was 4.65 µM (inactive) and the GI50 [18] was 1.07 µM (active). The GI50 [19] was 2.54 µM (inactive), the GI50 [20] was 1.97 µM (inactive) and the GI50 [21] was 1.65 µM (inactive). For the same compound, the GI50 [22] was 2.23 µM (inactive), the GI50 [23] was 2.35 µM (inactive) and the GI50 [24] was 2.94 µM (inactive). The GI50 [25] was 2.42 µM (inactive), the GI50 [26] was 1.19 µM (inactive) and the GI50 [27] was 2.88 µM (inactive). The GI50 [28] was 1.98 µM (inactive), the GI50 [29] was 2.12 µM (inactive) and the GI50 [30] was 3.11 µM (inactive). For the same compound, the GI50 [31] was 0.238 µM (active), the GI50 [32] was 4.16 µM (inactive) and the GI50 [33] was 0.305 µM (active). For the same compound, the GI50 [34] was 0.538 µM (active), the GI50 [35] was 0.385 µM (active) and the GI50 [36] was 0.49 µM (active). The GI50 [37] was 0.239 µM (active), the GI50 [38] was 3.24 µM (inactive) and the GI50 [39] was 2.73 µM (inactive). The GI50 [40] was 3.37 µM (inactive), the GI50 [41] was 3.08 µM (inactive) and the GI50 [42] was 2.56 µM (inactive). For the same compound, the GI50 [43] was 1.67 µM (inactive), the GI50 [44] was 1.34 µM (inactive) and the GI50 [45] was 3.32 µM (inactive). For the same compound, the GI50 [46] was 1.85 µM (inactive), the GI50 [47] was 1.72 µM and the GI50 [48] was 0.41 µM (active). The GI50 [49] was 0.386 µM (active) and the GI50 [50] was 2.06 µM (inactive).
With N[C@H](COCc1ccccc1)c1ccccc1 the GI50 [1] was 24.9 µM (inactive), the GI50 [2] was 32.1 µM (inactive) and the GI50 [3] was 28.1 µM (inactive). For the same compound, the GI50 [4] was 13.1 µM (inactive), the GI50 [5] was 23.7 µM (inactive) and the GI50 [6] was 29.9 µM (inactive). For the same compound, the GI50 [7] was 30.3 µM (inactive), the GI50 [51] was 14.9 µM (inactive) and the GI50 [8] was 23.1 µM (inactive). For the same compound, the GI50 [9] was 27.4 µM (inactive), the GI50 [10] was 30.5 µM (inactive) and the GI50 [11] was 23.3 µM (inactive). For the same compound, the GI50 [12] was 11.9 µM (inactive), the GI50 [52] was 29.3 µM (inactive) and the GI50 [13] was 33 µM (inactive). For the same compound, the GI50 [14] was 33.5 µM (inactive), the GI50 [15] was 28.8 µM (inactive) and the GI50 [16] was 33.4 µM (inactive). The GI50 [17] was 29.6 µM (inactive), the GI50 [18] was 24.5 µM (inactive) and the GI50 [20] was 35.6 µM (inactive). For the same compound, the GI50 [21] was 27.3 µM (inactive), the GI50 [22] was 21.1 µM (inactive) and the GI50 [23] was 27.7 µM (inactive). The GI50 [24] was 20 µM (inactive), the GI50 [25] was 23 µM (inactive) and the GI50 [53] was 33.4 µM (inactive). The GI50 [26] was 23.1 µM (inactive), the GI50 [27] was 31.5 µM (inactive) and the GI50 [54] was 20.7 µM (inactive). The GI50 [55] was 25 µM (inactive), the GI50 [28] was 23.1 µM (inactive) and the GI50 [56] was 39 µM (inactive). For the same compound, the GI50 [57] was 23.2 µM (inactive), the GI50 [29] was 20.1 µM (inactive) and the GI50 [30] was 32.1 µM (inactive). The GI50 [31] was 28 µM (inactive), the GI50 [32] was 26.7 µM (inactive) and the GI50 [33] was 22.5 µM (inactive). The GI50 [34] was 22.8 µM (inactive), the GI50 [58] was 27.7 µM (inactive) and the GI50 [35] was 16.5 µM (inactive). For the same compound, the GI50 [36] was 28.2 µM (inactive), the GI50 [37] was 16.7 µM (inactive) and the GI50 [38] was 32.4 µM (inactive). For the same compound, the GI50 [39] was > 46.5 µM (inactive), the GI50 [40] was 42.1 µM (inactive) and the GI50 [41] was 24.9 µM (inactive). The GI50 [59] was 25.9 µM (inactive), the GI50 [42] was 27.9 µM (inactive) and the GI50 [43] was 20.5 µM (inactive). For the same compound, the GI50 [44] was 21.1 µM (inactive), the GI50 [45] was 59.8 µM (inactive) and the GI50 [46] was 30.6 µM (inactive). For the same compound, the GI50 [47] was > 50.5 µM, the GI50 [48] was 23.8 µM (inactive) and the GI50 [49] was 29.3 µM (inactive). The GI50 [50] was > 56 µM (inactive).

Reference: ChEMBL document CHEMBL1201862, “PubChem BioAssay data set” (2004)
